From publication doi:10.1101/2025.04.14.25325787v4 (medrxiv, 2025)

Target: EGFR kinase domain (Homo sapiens, UniProt P00533)
Experiment: SPR
Format: binding

EGFR kinase domain, sequence (P00533 704-1016): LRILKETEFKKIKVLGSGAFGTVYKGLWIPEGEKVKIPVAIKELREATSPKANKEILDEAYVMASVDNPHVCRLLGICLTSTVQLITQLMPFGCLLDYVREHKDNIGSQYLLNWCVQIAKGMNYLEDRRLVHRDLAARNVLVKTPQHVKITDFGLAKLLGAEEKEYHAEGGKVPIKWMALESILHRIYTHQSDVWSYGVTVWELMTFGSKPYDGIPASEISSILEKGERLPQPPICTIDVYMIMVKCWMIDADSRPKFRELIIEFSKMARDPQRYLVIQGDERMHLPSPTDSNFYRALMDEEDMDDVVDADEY

With COc1ccc(CCn2c(=O)c3cc4c(cc3c3ccccc32)OCO4)cc1 [Z5, ZYH005] the Kd was 19.6 µM.
